Assay results taken from patent publication US20070049564A1 (Wyeth, priority 2005, published 2007).
In brackets after ≈: the same amount, converted by molar mass. Where two headings read alike, the source gives them in different places.

Columns and labels:
[1] = tested on: S. aureus GC 6466; test: MIC, broth microdilution; details: Staphylococcus aureus
[2] = tested on: E. coli GC 2272; test: MIC, broth microdilution; details: Escherichia coli
[3] = tested on: S. epidermidis GC 4935; test: MIC, broth microdilution; details: Staphylococcus epidermidis
[4] = tested on: E. coli GC 6465; test: MIC, broth microdilution; details: Escherichia coli
[5] = tested on: E. coli GC 4560; test: MIC, broth microdilution; details: Escherichia coli
[6] = tested on: S. typhimurium GC 2172; test: MIC, broth microdilution; details: Salmonella enterica, TYPHIMURIUM
[7] = tested on: E. coli GC 2235; test: MIC, broth microdilution; details: Escherichia coli
[8] = tested on: E. coli GC 2236; test: MIC, broth microdilution; details: Escherichia coli
[9] = tested on: E. coli GC 2233; test: MIC, broth microdilution; details: Escherichia coli
[10] = tested on: E. faecalis GC 2267; test: MIC, broth microdilution; details: Enterococcus faecalis
[11] = tested on: E. faecalis GC 4555; test: MIC, broth microdilution; details: Enterococcus faecalis
[12] = tested on: S. pneumoniae* GC 4465; test: MIC, broth microdilution; details: Streptococcus pneumoniae
[13] = tested on: E. faecium GC 4556; test: MIC, broth microdilution; details: Enterococcus faecium
[14] = tested on: E. coli GC 2234; test: MIC, broth microdilution; details: Escherichia coli
[15] = tested on: S. aureus GC 1079; test: MIC, broth microdilution; details: Staphylococcus aureus
[16] = tested on: E. coli GC 2231; test: MIC, broth microdilution; details: Escherichia coli
Method: Antimicrobial susceptibility testing. The in vitro activities of the antibiotics are determined by the broth microdilution method as recommended by the National Committee for Clinical Laboratory Standards (NCCLS) (1). Mueller-Hinton II broth (MHBII)(BBL Cockeysville, Md.) is the medium employed in the testing procedures. Microtiter plates containing serial dilutions of each antimicrobial agent are inoculated with each organism to yield the appropriate density (10^5 CFU/ml) in a 100 μl final volume. The plates are incubated for 18-22 hours at 35° C. in ambient air.
Representative compounds were first incubated in mouse serum for an hour prior to the in vitro testing against a panel of selected gram-positive and gram-negative bacteria strains. All compounds were also pre-incubated in water for an hour prior to testing as control.

[17] = tested on: S. aureus GC 6467; test: MIC, broth microdilution; details: Staphylococcus aureus
[18] = tested on: S. aureus GC 1131; test: MIC, broth microdilution; details: Staphylococcus aureus
[19] = tested on: Staph.; test: Range of MIC for Staph. strains, including MRSA; details: Staphylococcus aureus
[20] = tested on: E. coli GC 2203; test: MIC, broth microdilution; details: Escherichia coli
[21] = read-out: MINIMAL INHIBITORY CONCENTRATION MIC, pre-incubated in Human Serum
[22] = read-out: MINIMAL INHIBITORY CONCENTRATION MIC, pre-incubated in Mouse Serum
[23] = read-out: MINIMAL INHIBITORY CONCENTRATION MIC, pre-incubated in Water

## CC(C)C(=O)OCOC(=O)N(CC(=O)Nc1cc(N(C)C)c2c(c1O)C(=O)C1=C(O)[C@]3(O)C(=O)C(C(N)=O)=C(O)[C@@H](N(C)C)[C@@H]3C[C@@H]1C2)C(C)(C)C [Example 45, ({[(2-{[(5aR,6aS,7S,10aS)-9-(aminocarbonyl)-4,7-bis(dimethylamino)-1,8,10a,11-tetrahydroxy-10,12-dioxo-5,5a,6,6a,7,10,10a,12-octahydrotetracen-2-yl]amino}-2-oxoethyl)(tert-butyl)amino]carbonyl}oxy)methyl 2-methylpropanoate]
[1]; GC6466, read-out: MINIMAL INHIBITORY CONCENTRATION MIC, pre-incubated in Human Serum
  MIC: 0.25 µg/mL (≈ 0.343 µM)
[1]; GC6466, read-out: MINIMAL INHIBITORY CONCENTRATION MIC, pre-incubated in Mouse Serum
  MIC: 0.25 µg/mL (≈ 0.343 µM)
[1]; GC6466, read-out: MINIMAL INHIBITORY CONCENTRATION MIC, pre-incubated in Water
  MIC: 0.5 µg/mL (≈ 0.685 µM)
[2]; GC2272, read-out: MINIMAL INHIBITORY CONCENTRATION MIC, pre-incubated in Human Serum
  MIC: 8 µg/mL (≈ 11 µM)
[2]; GC2272, read-out: MINIMAL INHIBITORY CONCENTRATION MIC, pre-incubated in Mouse Serum
  MIC: 1 µg/mL (≈ 1.37 µM)
[2]; GC2272, read-out: MINIMAL INHIBITORY CONCENTRATION MIC, pre-incubated in Water
  MIC: 16 µg/mL (≈ 21.9 µM)
[3]; GC4935, read-out: MINIMAL INHIBITORY CONCENTRATION MIC, pre-incubated in Human Serum
  MIC: 1 µg/mL (≈ 1.37 µM)
[3]; GC4935, read-out: MINIMAL INHIBITORY CONCENTRATION MIC, pre-incubated in Mouse Serum
  MIC: 1 µg/mL (≈ 1.37 µM)
[3]; GC4935, read-out: MINIMAL INHIBITORY CONCENTRATION MIC, pre-incubated in Water
  MIC: 2 µg/mL (≈ 2.74 µM)
[4]; GC6465, read-out: MINIMAL INHIBITORY CONCENTRATION MIC, pre-incubated in Human Serum
  MIC: 16 µg/mL (≈ 21.9 µM)
[4]; GC6465, read-out: MINIMAL INHIBITORY CONCENTRATION MIC, pre-incubated in Mouse Serum
  MIC: 2 µg/mL (≈ 2.74 µM)
[4]; GC6465, read-out: MINIMAL INHIBITORY CONCENTRATION MIC, pre-incubated in Water
  MIC: > 64 µg/mL
[5]; GC4560, read-out: MINIMAL INHIBITORY CONCENTRATION MIC, pre-incubated in Human Serum
  MIC: 0.5 µg/mL (≈ 0.685 µM)
[5]; GC4560, read-out: MINIMAL INHIBITORY CONCENTRATION MIC, pre-incubated in Mouse Serum
  MIC: 0.25 µg/mL (≈ 0.343 µM)
[5]; GC4560, read-out: MINIMAL INHIBITORY CONCENTRATION MIC, pre-incubated in Water
  MIC: 2 µg/mL (≈ 2.74 µM)
[6]; [21]
  MIC: 32 µg/mL (≈ 43.8 µM)
[6]; [22]
  MIC: 2 µg/mL (≈ 2.74 µM)
[6]; [23]
  MIC: > 64 µg/mL
[7]; GC2235, read-out: MINIMAL INHIBITORY CONCENTRATION MIC, pre-incubated in Human Serum
  MIC: 4 µg/mL (≈ 5.48 µM)
[7]; GC2235, read-out: MINIMAL INHIBITORY CONCENTRATION MIC, pre-incubated in Mouse Serum
  MIC: 0.5 µg/mL (≈ 0.685 µM)
[7]; GC2235, read-out: MINIMAL INHIBITORY CONCENTRATION MIC, pre-incubated in Water
  MIC: 16 µg/mL (≈ 21.9 µM)
[8]; GC2236, read-out: MINIMAL INHIBITORY CONCENTRATION MIC, pre-incubated in Human Serum
  MIC: 4 µg/mL (≈ 5.48 µM)
[8]; GC2236, read-out: MINIMAL INHIBITORY CONCENTRATION MIC, pre-incubated in Mouse Serum
  MIC: 1 µg/mL (≈ 1.37 µM)
[8]; GC2236, read-out: MINIMAL INHIBITORY CONCENTRATION MIC, pre-incubated in Water
  MIC: 16 µg/mL (≈ 21.9 µM)
[9]; GC2233, read-out: MINIMAL INHIBITORY CONCENTRATION MIC, pre-incubated in Human Serum
  MIC: 4 µg/mL (≈ 5.48 µM)
[9]; GC2233, read-out: MINIMAL INHIBITORY CONCENTRATION MIC, pre-incubated in Mouse Serum
  MIC: 1 µg/mL (≈ 1.37 µM)
[9]; GC2233, read-out: MINIMAL INHIBITORY CONCENTRATION MIC, pre-incubated in Water
  MIC: 16 µg/mL (≈ 21.9 µM)
[10]; GC2267, read-out: MINIMAL INHIBITORY CONCENTRATION MIC, pre-incubated in Human Serum
  MIC: 1 µg/mL (≈ 1.37 µM)
[10]; GC2267, read-out: MINIMAL INHIBITORY CONCENTRATION MIC, pre-incubated in Mouse Serum
  MIC: 0.5 µg/mL (≈ 0.685 µM)
[10]; GC2267, read-out: MINIMAL INHIBITORY CONCENTRATION MIC, pre-incubated in Water
  MIC: 2 µg/mL (≈ 2.74 µM)
[11]; GC4555, read-out: MINIMAL INHIBITORY CONCENTRATION MIC, pre-incubated in Human Serum
  MIC: 2 µg/mL (≈ 2.74 µM)
[11]; GC4555, read-out: MINIMAL INHIBITORY CONCENTRATION MIC, pre-incubated in Mouse Serum
  MIC: 1 µg/mL (≈ 1.37 µM)
[11]; GC4555, read-out: MINIMAL INHIBITORY CONCENTRATION MIC, pre-incubated in Water
  MIC: 2 µg/mL (≈ 2.74 µM)
[12]; [21]
  MIC: 0.25 µg/mL (≈ 0.343 µM)
[12]; [22]
  MIC: 0.25 µg/mL (≈ 0.343 µM)
[12]; [23]
  MIC: 0.5 µg/mL (≈ 0.685 µM)
[13]; GC4556, read-out: MINIMAL INHIBITORY CONCENTRATION MIC, pre-incubated in Human Serum
  MIC: 1 µg/mL (≈ 1.37 µM)
[13]; GC4556, read-out: MINIMAL INHIBITORY CONCENTRATION MIC, pre-incubated in Mouse Serum
  MIC: 1 µg/mL (≈ 1.37 µM)
[13]; GC4556, read-out: MINIMAL INHIBITORY CONCENTRATION MIC, pre-incubated in Water
  MIC: 2 µg/mL (≈ 2.74 µM)
[14]; GC2234, read-out: MINIMAL INHIBITORY CONCENTRATION MIC, pre-incubated in Human Serum
  MIC: 4 µg/mL (≈ 5.48 µM)
[14]; GC2234, read-out: MINIMAL INHIBITORY CONCENTRATION MIC, pre-incubated in Mouse Serum
  MIC: 0.5 µg/mL (≈ 0.685 µM)
[14]; GC2234, read-out: MINIMAL INHIBITORY CONCENTRATION MIC, pre-incubated in Water
  MIC: 16 µg/mL (≈ 21.9 µM)
[15]; GC1079, read-out: MINIMAL INHIBITORY CONCENTRATION MIC, pre-incubated in Human Serum
  MIC: 0.12 µg/mL (≈ 0.164 µM)
[15]; GC1079, read-out: MINIMAL INHIBITORY CONCENTRATION MIC, pre-incubated in Mouse Serum
  MIC: 0.5 µg/mL (≈ 0.685 µM)
[15]; GC1079, read-out: MINIMAL INHIBITORY CONCENTRATION MIC, pre-incubated in Water
  MIC: 1 µg/mL (≈ 1.37 µM)
[16]; GC2231, read-out: MINIMAL INHIBITORY CONCENTRATION MIC, pre-incubated in Human Serum
  MIC: 4 µg/mL (≈ 5.48 µM)
[16]; GC2231, read-out: MINIMAL INHIBITORY CONCENTRATION MIC, pre-incubated in Mouse Serum
  MIC: 1 µg/mL (≈ 1.37 µM)
[16]; GC2231, read-out: MINIMAL INHIBITORY CONCENTRATION MIC, pre-incubated in Water
  MIC: 32 µg/mL (≈ 43.8 µM)
[17]; GC6467, read-out: MINIMAL INHIBITORY CONCENTRATION MIC, pre-incubated in Human Serum
  MIC: 1 µg/mL (≈ 1.37 µM)
[17]; GC6467, read-out: MINIMAL INHIBITORY CONCENTRATION MIC, pre-incubated in Mouse Serum
  MIC: 1 µg/mL (≈ 1.37 µM)
[17]; GC6467, read-out: MINIMAL INHIBITORY CONCENTRATION MIC, pre-incubated in Water
  MIC: 2 µg/mL (≈ 2.74 µM)
[18]; GC1131, read-out: MINIMAL INHIBITORY CONCENTRATION MIC, pre-incubated in Human Serum
  MIC: 0.5 µg/mL (≈ 0.685 µM)
[18]; GC1131, read-out: MINIMAL INHIBITORY CONCENTRATION MIC, pre-incubated in Mouse Serum
  MIC: 0.5 µg/mL (≈ 0.685 µM)
[18]; GC1131, read-out: MINIMAL INHIBITORY CONCENTRATION MIC, pre-incubated in Water
  MIC: 1 µg/mL (≈ 1.37 µM)
[19]; MRSA, read-out: Range of MIC, Staph (Mouse Serum)
  MIC: 0.25 to 1 µg/mL (≈ 0.343 to 1.37 µM)
[19]; MRSA, read-out: Range of MIC, Staph (Water)
  MIC: 0.5 to 2 µg/mL (≈ 0.685 to 2.74 µM)
[19]; read-out: Minimum inhibitory concentration (MIC), Staph (Human Serum)
  MIC: 0.12 to 1 µg/mL (≈ 0.164 to 1.37 µM)
[19]; read-out: Minimum inhibitory concentration (MIC), Staph (Water)
  MIC: 0.5 to 2 µg/mL (≈ 0.685 to 2.74 µM)
[20]; GC2203, read-out: MINIMAL INHIBITORY CONCENTRATION MIC, pre-incubated in Human Serum
  MIC: 4 µg/mL (≈ 5.48 µM)
[20]; GC2203, read-out: MINIMAL INHIBITORY CONCENTRATION MIC, pre-incubated in Mouse Serum
  MIC: 0.5 µg/mL (≈ 0.685 µM)
[20]; GC2203, read-out: MINIMAL INHIBITORY CONCENTRATION MIC, pre-incubated in Water
  MIC: 32 µg/mL (≈ 43.8 µM)
